# Legend:
# [1] = test system: SARS-CoV-2; type: functional, Severe acute respiratory syndrome coronavirus 2, Vero E6; details: time 72 hrs
# [2] = Cytotoxicity against HEK293 cells expressing ACE2 cells assessed as reduction in cell viability relative to control; details: human
# [3] = test system: SARS-CoV-2; assay: Antiviral activity against pseudovirus SARS-CoV-2 spike protein infected in HEK293 cells expressing ACE2 assessed as reduction in pseudotyped particle entry incubated for 48 hrs incubation by luminescence assay; type: functional, organism-based; details: Severe acute respiratory syndrome coronavirus 2, HEK293, 48 h
# [4] = test system: Vesicular stomatitis virus; assay: microbe, parasite or virus in culture; type: functional, organism-based
# [5] = Cytotoxicity against African green monkey Vero E6 cells expressing ACE2 cells assessed as reduction in cell viability relative to control; details: chlorocebus sabaeus
# [6] = test system: SARS-CoV-2; assay: microbe, parasite or virus in culture; type: functional, organism-based, Vero E6; details: Severe acute respiratory syndrome coronavirus 2, Vero C1008, 72 h
# [7] = test system: SARS-CoV-2; assay: Antiviral activity against pseudovirus SARS-CoV-2 spike protein infected in HEK293 cells expressing ACE2 assessed as reduction in pseudotyped particle entry incubated for 48 hrs incubation by luminescence assay relative to control; type: functional, Severe acute respiratory syndrome coronavirus 2
# [8] = test system: HEK293; assay: Cytotoxicity against HEK293 cells expressing ACE2 cells assessed as reduction in cell viability; details: Homo sapiens
# [9] = test system: Vero C1008; assay: Cytotoxicity against African green monkey Vero E6 cells expressing ACE2 cells assessed as reduction in cell viability; details: Chlorocebus sabaeus
# [10] = test system: SARS-CoV; assay: microbe, parasite or virus in culture; type: functional, organism-based; details: Severe acute respiratory syndrome-related coronavirus, Huh-7, 24 h
# [11] = Vesicular stomatitis virus, read-out: IC50
SMILES,Efficacy [1],Emax [2],IC50 [3],"IC50 [4, 11]",Emax [5],IC50 [6],Efficacy [7],IC50 [8],IC50 [9],IC50 [10],IC50 [4]
CC(Nc1nc(N2CCNCC2)nc2ccc(-c3ccccc3)cc12)c1ccccc1 (configuration not stated),81.6%,20.8%,15.8 µM,> 57.5 µM,88.5%,7.94 µM,100%,> 57.5 µM,14.1 µM,,
CC(Nc1nc(N2CCNCC2)nc2ccccc12)c1c(F)cccc1F (configuration not stated),79.9%,0%,22.4 µM,> 57.5 µM,12.8%,14.1 µM,88.9%,> 57.5 µM,,1.65 µM,
CC(Nc1nc(N2CCOCC2)nc2ccccc12)c1ccccc1 (configuration not stated),,25.1%,22.4 µM,> 57.5 µM,23%,> 20 µM,94.1%,> 57.5 µM,> 20 µM,,
CC(Nc1nc(N2CCNCC2)nc2ccccc12)c1ccccc1N (configuration not stated),31.5%,0%,,39.8 µM,0%,12.6 µM,70.2%,> 57.5 µM,> 20 µM,,
CN1CCC[C@@H]1CCO[C@](C)(c1ccccc1)c1ccc(Cl)cc1.O=C(O)/C=C/C(=O)O [CLEMASTINE FUMARATE],,,,,,,,,,,Not Active
CC(Nc1nc(N2CCC(=O)CC2)nc2ccccc12)c1ccccc1 (configuration not stated),48.5%,0%,31.6 µM,> 57.5 µM,0%,13 µM,100%,> 57.5 µM,,,
CC(Nc1nc(N2CCNCC2)nc2ccc(F)cc12)c1ccccc1 (configuration not stated),101.3%,0%,15.8 µM,> 57.5 µM,11.8%,7.94 µM,70.6%,> 57.5 µM,> 20 µM,,
CC(Nc1nc(N2CCNCC2)nc2cc(-c3ccccc3)ccc12)c1ccccc1 (configuration not stated),79%,96.7%,12.6 µM,35.5 µM,116%,4.47 µM,,39.8 µM,7.94 µM,,
CC(Nc1nc(N2CCNCC2)nc2cc(Br)ccc12)c1ccccc1 (configuration not stated),139.9%,72.1%,8.91 µM,7.94 µM,91.5%,7.94 µM,97.1%,39.8 µM,14.1 µM,,
C[C@H](Nc1nc(N2CCNCC2)nc2ccccc12)c1ccccc1,87.8%,0%,15.8 µM,> 57.5 µM,0%,,94.3%,> 57.5 µM,> 20 µM,,

# Source: ChEMBL document CHEMBL4823303, “Discovery of Small Molecule Entry Inhibitors Targeting the Fusion Peptide of SARS-CoV-2 Spike Protein” (ACS Med Chem Lett, 2021)
